Source: patent US20230107941A1, “HEPATITIS B CAPSID ASSEMBLY MODULATORS” (Venatorx Pharmaceuticals, Inc., priority 2019, published 2023)

What was measured:
HBV = test: In vitro antiviral assay: anti-HBV replication in HepAD38 cells (extracellular HBV DNA by QPCR); assay type: cell-based, hepatitis B virus (genotype D, serotype ayw); details: Hepatitis B virus, HePAD38, 168 h, 7 days incubation, extracellular HBV DNA by QPCR, read-out: Anti-HBV EC50
Method in brief: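 Read-out is extracellular HBV DNA (copies/mL, QPCR standard curve) after 7-day exposure of tet-free HepAD38 cells to 10-fold dilutions from 1 μM down to 10 pM. Values normalised to DMSO vehicle; EC50 from 4-parameter nonlinear regression, with entecavir validating each run.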

[1] = In vitro cytotoxicity assay (MTT cell viability) in HepG2 cells; assay type: cell-based, human; details: human
Method in brief: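 CC50 was derived by 4-parameter fit of viability relative to vehicle controls, measured as MTT formazan absorbance at 492 nm after 3–4 h of reagent and DMSO solubilization. Before that, HepG2 cells seeded overnight at 20,000/well were incubated 7 days at 37°C with compound from 30 μM down to 1.0 nM in half-log steps.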

Structure (SMILES)	EC50 (HBV) [nM]	CC50 at 7 days [1] [nM]
Cc1cc(NC(=O)c2c(C)c(C(=O)C(=O)N[C@]3(C)C[C@H](O)C3)n(C)c2-c2ccccn2)ccc1F [Example 155, N-(4-fluoro-3-methylphenyl)-5-(2-(((1s,3s)-3-hydroxy-1-methylcyclobutyl)amino)-2-oxoacetyl)-1,4-dimethyl-2-(pyridin-2-yl)-1H-pyrrole-3-carboxamide]	> 1000	> 30000
Cc1cc(NC(=O)c2c(C)c(C(=O)C(=O)NCC(C)(C)O)n(C)c2C2CC2)ccc1F [Example 130, 2-cyclopropyl-N-(4-fluoro-3-methylphenyl)-5-(2-((2-hydroxy-2-methylpropyl)amino)-2-oxoacetyl)-1,4-dimethyl-1H-pyrrole-3-carboxamide]	< 50	5000 to 30000
Cc1c(C(=O)NC23CCC(O)(CC2)CC3)c(C)n(C)c1C(=O)C(=O)Nc1cccnc1 [Example 29, N-(4-hydroxybicyclo[2.2.2]octan-1-yl)-1,2,4-trimethyl-5-(2-oxo-2-(pyridin-3-ylamino)acetyl)-1H-pyrrole-3-carboxamide]	> 1000	> 30000
CC(=O)N1CC[C@H](NC(=O)C(=O)c2c(C)c(C(=O)Nc3ccc(F)c(C)c3)c(C)n2C)C[C@@H]1C [Example 166, 5-(2-(((2S,4S)-1-acetyl-2-methylpiperidin-4-yl)amino)-2-oxoacetyl)-N-(4-fluoro-3-methylphenyl)-1,2,4-trimethyl-1H-pyrrole-3-carboxamide]	50 to 499	> 30000
Cc1cc(NC(=O)c2c(C3CC3)c(C(=O)C(=O)N[C@H]3CC[C@@H](S(C)(=O)=O)CC3)n(C)c2C)ccc1F [Example 100, 4-cyclopropyl-N-(4-fluoro-3-methylphenyl)-1,2-dimethyl-5-(2-(((1s,4s)-4-(methylsulfonyl)cyclohexyl)amino)-2-oxoacetyl)-1H-pyrrole-3-carboxamide]	< 50	> 30000
Cc1cc(NC(=O)c2c(C3CC3)c(C(=O)C(=O)N[C@H]3CC[C@@H](O)CC3)n(C)c2C)ccc1F [Example 97, 4-cyclopropyl-N-(4-fluoro-3-methylphenyl)-5-(2-(((1s,4s)-4-hydroxycyclohexyl)amino)-2-oxoacetyl)-1,2-dimethyl-1H-pyrrole-3-carboxamide]	500 to 1000	> 30000
Cc1cc(NC(=O)c2c(C3CC3)c(C(=O)C(=O)N[C@]3(C)CC[C@@H](O)CC3)n(C)c2C)ccc1F [Example 102, 4-cyclopropyl-N-(4-fluoro-3-methylphenyl)-5-(2-(((1r,4r)-4-hydroxy-1-methylcyclohexyl)amino)-2-oxoacetyl)-1,2-dimethyl-1H-pyrrole-3-carboxamide]	< 50	> 30000
Cc1cc(NC(=O)c2c(C)c(C(=O)C(=O)NC3C[C@H]4C[C@@H]3CC4O)n(C)c2C)ccc1F (stereo partly drawn) [Example 23, N-(4-fluoro-3-methylphenyl)-5-(2-(((1R,4R)-5-hydroxybicyclo[2.2.1]heptan-2-yl)amino)-2-oxoacetyl)-1,2,4-trimethyl-1H-pyrrole-3-carboxamide]	< 50	> 30000
CCc1c(C(=O)Nc2ccc(F)c(C)c2)c(C)n(C)c1C(=O)C(=O)N[C@H](C)C(F)(F)F [Example 90, (R)-4-ethyl-N-(4-fluoro-3-methylphenyl)-1,2-dimethyl-5-(2-oxo-2-((1,1,1-trifluoropropan-2-yl)amino)acetyl)-1H-pyrrole-3-carboxamide]	< 50	5000 to 30000
Cc1cc(NC(=O)c2c(C)c(C(=O)C(=O)N[C@]3(C)CC[C@@H](O)CC3)n(C)c2C)cc(C)c1F [Example 168, N-(4-fluoro-3,5-dimethylphenyl)-5-(2-(((1r,4r)-4-hydroxy-1-methylcyclohexyl)amino)-2-oxoacetyl)-1,2,4-trimethyl-1H-pyrrole-3-carboxamide]	< 50	> 30000
Cc1cc(NC(=O)c2c(C)c(C(=O)C(=O)Nc3cccnc3N3CCOCC3)n(C)c2C)ccc1F [Example 53, N-(4-fluoro-3-methylphenyl)-1,2,4-trimethyl-5-(2-((2-morpholinopyridin-3-yl)amino)-2-oxoacetyl)-1H-pyrrole-3-carboxamide]	< 50	> 30000
Cc1cc(NC(=O)c2c(C)c(C(=O)C(=O)N[C@H]3CCN(CC(=O)O)C3)n(C)c2C)ccc1F [Example 28, (S)-2-(3-(2-(4-((4-fluoro-3-methylphenyl)carbamoyl)-1,3,5-trimethyl-1H-pyrrol-2-yl)-2-oxoacetamido)pyrrolidin-1-yl)acetic acid]	> 1000	> 30000
Cc1cc(NC(=O)c2c(C)c(C(=O)C(=O)N[C@H]3CC[C@@H](OCC(=O)O)CC3)n(C)c2C)ccc1F [Example 144, 2-(((1s,4s)-4-(2-(4-((4-fluoro-3-methylphenyl)carbamoyl)-1,3,5-trimethyl-1H-pyrrol-2-yl)-2-oxoacetamido)cyclohexyl)oxy) acetic acid]	50 to 499	> 30000
Cc1c(C(=O)Nc2cc(Cl)cc(Cl)c2)c(C)n(C)c1C(=O)C(=O)N[C@H]1CC[C@@H](O)CC1 [Example 10, N-(3,5-dichlorophenyl)-5-(2-(((1s,4s)-4-hydroxycyclohexyl)amino)-2-oxoacetyl)-1,2,4-trimethyl-1H-pyrrole-3-carboxamide]	< 50	5000 to 30000
Cc1cc(NC(=O)c2c(C)c(C(=O)C(=O)NC3CCc4nnn(C)c4C3)n(C)c2C)ccc1F (centres unmarked) [Example 85, N-(4-fluoro-3-methylphenyl)-1,2,4-trimethyl-5-(2-((1-methyl-4,5,6,7-tetrahydro-1H-benzo[d][1,2,3]triazol-6-yl)amino)-2-oxoacetyl)-1H-pyrrole-3-carboxamide]	< 50	> 30000
Cc1c(C(=O)Nc2ccc(F)c(F)c2)c2n(c1C(=O)C(=O)NC1(C)CCN(C(=O)Nc3ccc(F)c(F)c3)CC1)CCCC2 [Example 33, N-(3,4-difluorophenyl)-3-(2-((1-((3,4-difluorophenyl)carbamoyl)-4-methylpiperidin-4-yl)amino)-2-oxoacetyl)-2-methyl-5,6,7,8-tetrahydroindolizine-1-carboxamide]	< 50	500 to 4990
Cc1c(C(=O)NC2COCCOC2)c(C)n(C)c1C(=O)C(=O)NC(C)(C)C [Example 48, 5-(2-(tert-butylamino)-2-oxoacetyl)-N-(1,4-dioxepan-6-yl)-1,2,4-trimethyl-1H-pyrrole-3-carboxamide]	> 1000	> 30000
Cc1cc(NC(=O)c2c(C)c(C(=O)C(=O)N3CCOCC3)n(C)c2C)ccc1F [Example 187, N-(4-fluoro-3-methylphenyl)-1,2,4-trimethyl-5-(2-morpholino-2-oxoacetyl)-1H-pyrrole-3-carboxamide]	500 to 1000	> 30000
Cc1c(C(=O)Nc2ccc(F)c(Br)c2)c(C)n(C)c1C(=O)C(=O)N[C@H]1CC[C@@H](O)CC1 [Example 19, N-(3-bromo-4-fluorophenyl)-5-(2-(((1s,4s)-4-hydroxycyclohexyl)amino)-2-oxoacetyl)-1,2,4-trimethyl-1H-pyrrole-3-carboxamide]	< 50	> 30000
CCc1c(C(=O)Nc2ccc(F)c(C)c2)c(C)c(C(=O)C(=O)N[C@H]2CC[C@@H](S(C)(=O)=O)CC2)n1C [Example 106, 2-ethyl-N-(4-fluoro-3-methylphenyl)-1,4-dimethyl-5-(2-(((1s,4s)-4-(methylsulfonyl)cyclohexyl)amino)-2-oxoacetyl)-1H-pyrrole-3-carboxamide]	< 50	> 30000
CCC1(NC(=O)C(=O)c2c(C)c(C(=O)Nc3ccc(F)c(C)c3)c(C)n2C)CCN(c2nccs2)CC1 [Example 43, 5-(2-((4-ethyl-1-(thiazol-2-yl)piperidin-4-yl)amino)-2-oxoacetyl)-N-(4-fluoro-3-methylphenyl)-1,2,4-trimethyl-1H-pyrrole-3-carboxamide]	< 50	5000 to 30000
Cc1cc(NC(=O)c2c(C)c(C(=O)C(=O)NCC(C)(C)O)n(C)c2-c2cccnc2)ccc1F [Example 154, N-(4-fluoro-3-methylphenyl)-5-(2-((2-hydroxy-2-methylpropyl)amino)-2-oxoacetyl)-1,4-dimethyl-2-(pyridin-3-yl)-1H-pyrrole-3-carboxamide]	50 to 499	> 30000
Cc1cc(NC(=O)c2c(C)c(C(=O)C(=O)N[C@]3(C)CC[C@H](O)CC3)n(C)c2-c2ccncc2)ccc1F [Example 162, N-(4-fluoro-3-methylphenyl)-5-(2-(((1s,4s)-4-hydroxy-1-methylcyclohexyl)amino)-2-oxoacetyl)-1,4-dimethyl-2-(pyridin-4-yl)-1H-pyrrole-3-carboxamide]	> 1000	> 30000
CC[C@]1(NC(=O)C(=O)c2c(C)c(C(=O)Nc3ccc(F)c(C)c3)c(C)n2C)CC[C@H](O)CC1 [Example 4, 5-(2-(((1r,4r)-1-ethyl-4-hydroxycyclohexyl)amino)-2-oxoacetyl)-N-(4-fluoro-3-methylphenyl)-1,2,4-trimethyl-1H-pyrrole-3-carboxamide]	< 50	> 30000
Cc1c(C(=O)Nc2ccc(N3CCOCC3)nc2)c(C)n(C)c1C(=O)C(=O)NC(C)(C)C [Example 62, 5-(2-(tert-butylamino)-2-oxoacetyl)-1,2,4-trimethyl-N-(6-morpholinopyridin-3-yl)-1H-pyrrole-3-carboxamide]	> 1000	> 30000
